Measurements as given in patent US20220296595A1, “CDK INHIBITORS” (QILU REGOR THERAPEUTICS INC., priority 2019, published 2022).
Where two headings read alike, the source gives them in different places.

Tests used:
[1] = molecular target: T1, CDK4/CyclinD1 (Homo sapiens, UniProt P11802); assay: Assay for inhibition of CDK4/CyclinD1 (Caliper microfluidic kinase assay); type: biochemical
T1 construct: purchased Thermofisher PR8064A
Procedure: The CDK4 enzyme assay for IC50 determination was performed as follows. Microfluidic kinase detection technology (Caliper) was used to monitor the phosphorylation of peptide substrate by CDK4/CyclinD1. The total reaction volume was 15 μL containing buffer A (100 mM HEPES (pH 7.5), 0.1% BSA, 0.01% Triton X-100, 1 mM DTT, 10 mM MgCl2, 10 μM Sodium Orthovanadate, 10 μM Beta-Glycerophosphate), 200 μM ATP, 1 nM CDK4/CyclinD1 (Thermofisher, PR8064A), 1 μM FL-34 (5-FAM-[…]), and the test compound at appropriate dilutions in DMSO. All components were added to the 384-well plate (Corning, 4514), and incubated at Room Temperature for 3 hours. The reaction was terminated by addition of 15 μL Stop Buffer (180 mM HEPES (pH 7.5), 20 mM EDTA, Coating-3 reagent (PerkinElmer, 760050)). The plate was then loaded on Caliper EZ Reader (EZ Reader II, PerkinElmer, HD-4HYSG2772), and the reaction mixtures including substrate and product were sipped into the microfluidic chip for separation and detection. The IC50 values of the test compound were determined by fitting the inhibition curves by 4 parameter sigmoidal dose-response model using the Xlfit5/GraphPad Prism 5 software.

[2] = molecular target: T2, CDK2/CyclinE1 (Homo sapiens, UniProt P24941); assay: Assay for inhibition of CDK2/CyclinE1 (Caliper microfluidic kinase assay); type: biochemical; settings: read-out: CDK2 IC50
T2 construct: purchased SignalChem C29-18G
Procedure: The CDK2 enzyme assay for IC50 determination was performed as follows. Microfluidic kinase detection technology (Caliper) was used to monitor the phosphorylation of peptide substrate by CDK2/CyclinE1. The total reaction volume was 15 μL containing buffer A (100 mM HEPES (pH 7.5), 0.1% BSA, 0.01% Triton X-100, 1 mM DTT, 10 mM MgCl2, 10 μM Sodium Orthovanadate, 10 μM Beta-Glycerophosphate), 100 μM ATP, 5 nM CDK2/CyclinE1 (SignalChem, C29-18G), 5 μM FL-18 (5-FAM-QSPKKG-NH2), and the test compound at appropriate dilutions in DMSO. All components were added to the 384-well plate (Corning, 4514), and incubate at Room Temperature for 3 hours. The reaction was terminated by addition of 15 μL Stop Buffer (180 mM HEPES (pH 7.5), 20 mM EDTA, Coating-3 reagent (PerkinElmer, 760050)). The plate was loaded on Caliper EZ Reader (EZ Reader II, PerkinElmer, HD-4HYSG2772), and the reaction mixtures including substrate and product were sipped into the microfluidic chip for separation and detection. The IC50 values of the test compound were determined by fitting the inhibition curves by 4 parameter sigmoidal dose-response model using the Xlfit5/GraphPad Prism 5 software.

[3] = tested on: T47D breast cancer cells; assay: Anti-proliferation assay in T47D cell (Cyquant, day 6); type: cell-based, human; settings: Homo sapiens, T47D, anti-proliferation, T47D cells; read-out: T47D IC50
Source text: T47D is a human breast cancer cell line commonly used in biomedical research involving the hormonal expression of cancer cells. T47D cells are distinct from other human breast cancer cells in that their progesterone receptors (PR) are not regulated by estradiol, a hormone that is abundant within the cells themselves. T47D cells have been employed in studies of the effects of progesterone on breast cancer and the corresponding transcriptional regulation caused by introduced drugs. The cells have been noted to be extremely resistant to estrogens and antiestrogens.
T47D breast cancer cells from American Type Culture Collection (ATCC, HTB-133) were plated at 3000 cells/well in 96-well plates, and were incubated in RPMI 1640 medium (Gibco, 31800105) with 10% Fetal Bovine Serum (FBS, Biowest, FB-1058) at 37° C., 5% CO2. After overnight incubation, baseline values were measured of the samples from one plate using Cyquant reagent (Invitrogen, C35011) following manufacturer's recommendations. Cells were incubated with the detection reagent for 1 hour at 37° C., and then the fluorescence was measured with excitation at 485 nm and emission at 535 nm using Spectra Max M5 (Molecular Devices, HD-4HYSG3196). Other plates were dosed with compounds at a ten-point dose concentration from 10 μM to 0.51 nM in a 3-fold dilution scheme. On day 6 after compound addition, Cyquant reagent was added and the fluorescence was measured using Spectra Max M5. The IC50 values of the test compound's anti-proliferation activity were determined from the baseline subtracted viability readout curve using Xlfit5/GraphPad Prism 5 software.

T1 sequence (P11802 whole entry): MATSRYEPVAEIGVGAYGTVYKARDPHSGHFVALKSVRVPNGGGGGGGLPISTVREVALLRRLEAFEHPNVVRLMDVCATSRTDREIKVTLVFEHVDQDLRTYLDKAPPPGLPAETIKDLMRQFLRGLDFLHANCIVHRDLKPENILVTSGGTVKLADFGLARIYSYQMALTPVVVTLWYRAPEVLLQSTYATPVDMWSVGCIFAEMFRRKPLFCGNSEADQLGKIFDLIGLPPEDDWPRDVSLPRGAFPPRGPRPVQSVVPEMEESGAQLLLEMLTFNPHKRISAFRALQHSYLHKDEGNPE
T1 sequence (P24385 whole entry partner): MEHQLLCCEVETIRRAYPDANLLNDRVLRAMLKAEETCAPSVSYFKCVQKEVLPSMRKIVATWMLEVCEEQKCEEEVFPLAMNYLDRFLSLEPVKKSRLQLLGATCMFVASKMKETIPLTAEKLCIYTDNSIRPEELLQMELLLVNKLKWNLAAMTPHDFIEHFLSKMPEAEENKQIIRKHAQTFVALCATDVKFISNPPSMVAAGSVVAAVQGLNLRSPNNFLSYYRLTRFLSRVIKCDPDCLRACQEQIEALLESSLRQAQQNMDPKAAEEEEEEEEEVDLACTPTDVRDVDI

SMILES | IC50 ([1]; CDK4/CyclinD1, 200 μM ATP) [nM] | IC50 ([2]; CDK2/CyclinE1, 100 μM ATP) [nM] | IC50 [3] [nM] | IC50 ([1]; CDK4/CyclinD1) [nM] | IC50 ([2]; CDK2/CyclinE1) [nM]
CNC1CCCN(c2ccc(Nc3nccc(-c4cc(F)c5c(c4)C(C)(C)CO5)n3)cc2)C1=O (stereo not drawn) [compound 265] | < 10 | 10 to 100 | < 100 | – | –
CN(C)C1CCCN(c2ccc(Nc3nccc(-c4cc(F)c5c(c4)C(C)(C)CO5)n3)cc2)C1=O (stereo not drawn) [compound 266] | < 10 | 100 to 1000 | < 100 | – | –
CC(C)n1cnc2c(F)nc(-c3ccnc(Nc4ccc(N5CCN(C6CC6)CC5)cn4)n3)cc21 [compound 267] | < 10 | 100 to 1000 | < 100 | – | –
CNC1CCCN(c2ccc(Nc3ncc(C)c(-c4cc5c(ncn5C(C)C)c(F)n4)n3)cc2)C1=O (stereo not drawn) [compound 298] | < 10 | 100 to 1000 | < 100 | – | –
CC(C)n1cnc2c(F)nc(-c3nc(Nc4ccc(N5CCCC(N(C)C)C5=O)cn4)ncc3F)cc21 (stereo not drawn) [compound 300] | < 10 | > 1000 | < 100 | – | –
CC(C)n1cnc2c(F)nc(-c3ccnc(Nc4ccc(N5CCCC(N(C)C)C5=O)cc4)n3)cc21 (stereo not drawn) [compound 304] | < 10 | 10 to 100 | < 100 | – | –
CC(C)n1cnc2c(F)nc(-c3ccnc(Nc4ccc(N5CCN(C(C)(C)C)CC5)cn4)n3)cc21 [compound 308] | < 10 | 100 to 1000 | < 100 | – | –
CC(C)n1cnc2c(F)nc(-c3ccnc(Nc4ccc(N5CCN(CCF)CC5)cn4)n3)cc21 [compound 309] | < 10 | 100 to 1000 | < 100 | – | –

Continued, values first:

IC50 ([1]; CDK4/CyclinD1, 200 μM ATP) [nM] | IC50 ([2]; CDK2/CyclinE1, 100 μM ATP) [nM] | IC50 [3] [nM] | IC50 ([1]; CDK4/CyclinD1) [nM] | IC50 ([2]; CDK2/CyclinE1) [nM] | SMILES
< 10 | 10 to 100 | < 100 | – | – | CC1(N)CCN(c2ccc(Nc3nccc(-c4cc(F)c5c(c4)C4(CCCC4)CO5)n3)nc2)C(=O)C1 (stereo not drawn) [compound 260]
< 10 | 10 to 100 | < 100 | – | – | CC1(C)COc2c(F)cc(-c3ccnc(Nc4ccc(N5CCCC(N)C5=O)cc4)n3)cc21 (stereo not drawn) [compound 263]
< 10 | 10 to 100 | < 100 | – | – | CC(C)n1cnc2c(F)nc(-c3ccnc(Nc4ccc(N5CCC(N(C)C)C5=O)cc4)n3)cc21 (stereo not drawn) [compound 268]
< 10 | > 1000 | < 100 | – | – | Cc1nc2c(F)nc(-c3ccnc(Nc4ccc(N5CCN(C(C)C)CC5)cn4)n3)cc2n1C(C)C [compound 269]
< 10 | > 1000 | < 100 | – | – | CNC1CCCN(c2ccc(Nc3nccc(-c4cc5c(ncn5C(C)C)c(F)n4)n3)nc2)C1=O (stereo not drawn) [compound 284]
< 10 | 10 to 100 | < 100 | – | – | CNC1CCCN(c2ccc(Nc3nccc(-c4cc5c(ncn5C(C)C)c(F)n4)n3)cc2)C1=O (stereo not drawn) [compound 294]
< 10 | < 10 | < 100 | – | – | Cc1nc2c(F)nc(-c3ccnc(Nc4ccc(N5CCC(N(C)C)CC5=O)cc4)n3)cc2n1C(C)C (stereo not drawn) [compound 295]
< 10 | 100 to 1000 | < 100 | – | – | CNC1CCCN(c2ccc(Nc3ncc(Cl)c(-c4cc5c(ncn5C(C)C)c(F)n4)n3)cc2)C1=O (stereo not drawn) [compound 299]
< 10 | 10 to 100 | < 100 | – | – | CC(C)n1cnc2c(F)nc(-c3ccnc(Nc4ccc(N5CCCC(N)C5=O)cc4F)n3)cc21 (stereo not drawn) [compound 306]
– | – | < 100 | < 10 | 100 to 1000 | COc1nc(-c2ccnc(Nc3ccc(N4CCCC(N(C)C)C4=O)cc3)n2)cc2c1ncn2C(C)C (stereo not drawn) [compound 311]
